For 23 molecules, IC50 results are on record in patent US20240208928A1, “NOVEL COMPOUNDS” (Hoffmann-La Roche Inc., priority 2021, published 2024).

Assay [1] concerns the target T1, NLRP3 (Homo sapiens, UniProt Q96P20). Nature of the assay: THP-1 cells pyroptosis assay. It is filed as cell-based. On the set-up: Seed THP-1 cells (25,000 cells/well) containing 1.0 μg/ml LPS; host or cells: THP-1 cells, LPS-primed, nigericin-stimulated. The note with it: 1.0 μg/ml LPS, nigericin 5 μM, resazurin readout. How it is done: The cells were routinely passaged and grown to confluency (˜10^6 cells/ml). On the day of the experiment, THP-1 cells were harvested and resuspended into RPMI medium (without FBS). […] To this diluted cell solution was added LPS (Sigma #L4524) to give a 1 μg/ml Final Assay Concentration (FAC). 40 μl of the final preparation was aliquoted into each well of a 96-well plate. The plate thus prepared was used for compound screening.
The following method step-by-step assay was followed for compound screening. • 1. […] Incubate for 3 hrs at 37° C., 5% CO2 • 4. Add 5 μl nigericin (Sigma #N7143) (FAC 5 μM) to all wells • 5. Incubate for 1 hr at 37° C., 5% CO2 • 6. At the end of the incubation period, spin plates at 300×g for 3 mins and remove supernatant • 7. Then add 50 μl of resazurin (Sigma #R7017) (FAC 100 μM resazurin in RPMI medium without FBS) and incubate plates for a further 1-2 hrs at 37° C. and 5% CO2 • 8. […] IC50 data is fitted to a non-linear regression equation (log inhibitor vs response-variable slope 4-parameters)
(In general: The colour change of resazurin is a common sign of viable cells or microbes.)

The target in assay [2] is T1, NLRP3. Put plainly: Human whole blood IL-1β release assay. It is filed as cell-based. On the set-up: Human whole blood in Li-heparin tubes was obtained from healthy donors; from tissue; host or cells: human whole blood from healthy donors, LPS-primed, nigericin-stimulated. Conditions: 1 μg/ml LPS, nigericin 10 μM, IL-1β by AlphaLisa. How it is done: For systemic delivery, the ability to inhibit NLRP3 when the compounds are present within the bloodstream is of great importance. For this reason, the NLRP3 inhibitory activity of a number of compounds in human whole blood was investigated in accordance with the following protocol.
Human whole blood in Li-heparin tubes was obtained from healthy donors from a volunteer donor panel. • 1. […] Incubate for 3 hrs at 37° C., 5% CO2 • 4. Add 10 μl nigericin (Sigma #N7143) (10 μM FAC) to all wells • 5. Incubate for 1 hr at 37° C., 5% CO2 • 6. At the end of the incubation period, spin plates at 300×g for 5 mins to pellet cells and remove 20 μl of supernatant and add to 96-well v-bottom plates for IL-1β analysis (note: these plates containing the supernatants can be stored at −80° C. to be analysed at a later date) • 7. IL-1β was measured according to the manufacturer protocol (Perkin Elmer-AlphaLisa IL-1 Kit AL220F-5000) • 8. IC50 data is fitted to a non-linear regression equation (log inhibitor vs response-variable slope 4-parameters)
A general note: Bead proximity is the source of the signal in Alpha formats.

A value given as a limit tells only on which side of the number the result lay.

T1 sequence (Q96P20 whole entry): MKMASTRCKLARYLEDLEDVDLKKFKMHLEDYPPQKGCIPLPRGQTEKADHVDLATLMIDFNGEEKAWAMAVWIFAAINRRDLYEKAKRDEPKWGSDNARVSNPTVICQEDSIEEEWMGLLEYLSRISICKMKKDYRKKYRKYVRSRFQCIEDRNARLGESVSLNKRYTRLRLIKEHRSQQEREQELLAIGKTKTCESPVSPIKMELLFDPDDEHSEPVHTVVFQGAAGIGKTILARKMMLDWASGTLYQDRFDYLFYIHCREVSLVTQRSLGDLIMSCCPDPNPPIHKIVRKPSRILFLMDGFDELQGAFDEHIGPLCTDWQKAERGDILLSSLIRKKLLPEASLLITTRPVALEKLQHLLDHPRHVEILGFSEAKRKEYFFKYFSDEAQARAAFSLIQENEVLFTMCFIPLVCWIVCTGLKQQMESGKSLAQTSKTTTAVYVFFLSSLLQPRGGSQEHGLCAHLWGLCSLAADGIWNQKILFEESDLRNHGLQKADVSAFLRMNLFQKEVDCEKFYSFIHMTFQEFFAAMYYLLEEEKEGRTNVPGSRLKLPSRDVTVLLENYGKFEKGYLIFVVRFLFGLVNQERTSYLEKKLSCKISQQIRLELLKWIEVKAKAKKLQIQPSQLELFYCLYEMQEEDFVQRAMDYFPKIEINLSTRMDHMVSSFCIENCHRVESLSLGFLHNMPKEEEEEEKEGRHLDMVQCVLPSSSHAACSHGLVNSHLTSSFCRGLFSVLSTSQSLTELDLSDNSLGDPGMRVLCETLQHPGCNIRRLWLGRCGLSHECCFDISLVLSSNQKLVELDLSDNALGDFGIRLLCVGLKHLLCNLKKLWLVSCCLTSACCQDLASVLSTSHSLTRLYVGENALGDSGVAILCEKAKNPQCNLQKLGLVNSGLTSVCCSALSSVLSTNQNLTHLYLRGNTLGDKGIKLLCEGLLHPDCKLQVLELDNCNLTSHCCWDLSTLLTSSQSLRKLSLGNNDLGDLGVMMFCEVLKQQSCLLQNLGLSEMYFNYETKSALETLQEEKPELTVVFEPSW

As a reminder, the IC50 is the concentration that inhibits the measured activity by half. Higher therefore signals lower potency. `CCN1CCC[C@@H](Nc2nnc(-c3c(C)cc(C(F)(F)F)cc3O)n(C)c2=O)C1` (single isomer, unassigned) [Example 29, (M or P)-6-[[(3R)-1-ethyl-3-piperidyl]amino]-3-[2-hydroxy-6-methyl-4-(trifluoromethyl)phenyl]-4-methyl-1,2,4-triazin-5-one] displayed an IC50 at NLRP3 [1] of 7.8 nM.

As for `CCN1CCC[C@@H](Nc2nnc(-c3c(C)cc(C(F)(F)F)cc3O)n(C)c2=O)C1` (single isomer, unassigned) [Example 30, (P or M)-6-[[(3R)-1-ethyl-3-piperidyl]amino]-3-[2-hydroxy-6-methyl-4-(trifluoromethyl)phenyl]-4-methyl-1,2,4-triazin-5-one], the IC50 against NLRP3 [1] stood at 751 nM.

`Cn1c(-c2ccc(C(F)(F)F)cc2O)nnc(N[C@@H]2CCCNC2)c1=O` [Example 3, 3-[2-Hydroxy-4-(trifluoromethyl)phenyl]-4-methyl-6-[[(3R)-3-piperidyl]amino]-1,2,4-triazin-5-one;2,2,2-trifluoroacetic Acid] had an IC50 at NLRP3 [1] of 170 nM.

In the case of `CN1C2CCC(Nc3nnc(-c4ccc(C(F)(F)F)cc4O)n(C)c3=O)C1CC2` (stereo not shown) [Example 4, 3-[2-Hydroxy-4-(trifluoromethyl)phenyl]-4-methyl-6-[(8-methyl-8-azabicyclo[3.2.1]octan-2-yl)amino]-1,2,4-triazin-5-one;2,2,2-trifluoroacetic Acid], the results for the IC50 on NLRP3 [1] and at NLRP3 [2] were 96 nM and 120 nM, respectively.

For the molecule `Cn1c(-c2ccc(C(F)(F)F)cc2O)nnc(N[C@@H]2CCCN(CC3CC3)C2)c1=O` [Example 5, (R)-6-((1-(Cyclopropylmethyl)piperidin-3-yl)amino)-3-(2-hydroxy-4-(trifluoromethyl)phenyl)-4-methyl-1,2,4-triazin-5(4H)-one;2,2,2-trifluoroacetic Acid], the IC50 at NLRP3 [1] is 88 nM; against NLRP3 [2], 92 nM.

Consider `CN1CCC[C@@H](Nc2nnc(-c3ccc(C(F)(F)F)cc3O)n(C)c2=O)C1` [Example 6, (R)-3-(2-Hydroxy-4-(trifluoromethyl)phenyl)-4-methyl-6-((1-methylpiperidin-3-yl)amino)-1,2,4-triazin-5(4H)-one;2,2,2-trifluoroacetic Acid], for which the IC50 against NLRP3 [1] is 24 nM; on NLRP3 [2], 15 nM.

On to `Cn1c(-c2ccc(C(F)(F)F)cc2O)nnc(NC2CCCN3CCCC23)c1=O` (stereo not shown) [Example 7, 6-(1,2,3,5,6,7,8,8a-Octahydroindolizin-8-ylamino)-3-[2-hydroxy-4-(trifluoromethyl)phenyl]-4-methyl-1,2,4-triazin-5-one;2,2,2-trifluoroacetic Acid], for which the 50% inhibitory concentration (IC50) on NLRP3 [1] came to 51 nM; against NLRP3 [2] it was 86 nM.

In the case of `CCCN1CCC[C@@H](Nc2nnc(-c3ccc(C(F)(F)F)cc3O)n(C)c2=O)C1` [Example 8, 3-[2-Hydroxy-4-(trifluoromethyl)phenyl]-4-methyl-6-[[(3R)-1-propyl-3-piperidyl]amino]-1,2,4-triazin-5-one;2,2,2-trifluoroacetic Acid], the results for the IC50 against NLRP3 [1] and on NLRP3 [2] were 53 nM and 32 nM, respectively.

`CN1CC(Nc2nnc(-c3ccc(C(F)(F)F)cc3O)n(C)c2=O)CC(C)(C)C1` (stereo not shown) [Example 9, 3-[2-Hydroxy-4-(trifluoromethyl)phenyl]-4-methyl-6-[(1,5,5-trimethyl-3-piperidyl)amino]-1,2,4-triazin-5-one;2,2,2-trifluoroacetic Acid] registered an IC50 against NLRP3 [1] of 868 nM. This counts as sub-micromolar.

On to `Cn1c(-c2ccc(C(F)(F)F)cc2O)nnc(N[C@H]2C[C@@](C)(O)C2)c1=O` [Example 11, 6-(((1S,3S)-3-Hydroxy-3-methylcyclobutyl)amino)-3-(2-hydroxy-4-(trifluoromethyl)phenyl)-4-methyl-1,2,4-triazin-5(4H)-one], for which the IC50 against NLRP3 [1] is 391 nM; at NLRP3 [2], 190 nM.

With `Cn1c(-c2ccc(C(F)(F)F)cc2O)nnc(NC2CC3CNC2C3)c1=O` (stereo not shown) [Example 13, 6-(2-Azabicyclo[2.2.1]heptan-6-ylamino)-3-[2-hydroxy-4-(trifluoromethyl)phenyl]-4-methyl-1,2,4-triazin-5-one;2,2,2-trifluoroacetic Acid], the IC50 on NLRP3 [1] was over 1000 nM.

`CCN1C[C@@H](C)C[C@@H](Nc2nnc(-c3ccc(C(F)(F)F)cc3O)n(C)c2=O)C1` [Example 14, 6-[[(3R,5S)-1-Ethyl-5-methyl-3-piperidyl]amino]-3-[2-hydroxy-4-(trifluoromethyl)phenyl]-4-methyl-1,2,4-triazin-5-one;2,2,2-trifluoroacetic Acid]: the IC50 against NLRP3 [1] came to 765 nM.

The molecule `CCN1C[C@H](C)C[C@@H](Nc2nnc(-c3ccc(C(F)(F)F)cc3O)n(C)c2=O)C1` [Example 15, 6-[[(3R,5R)-1-Ethyl-5-methyl-3-piperidyl]amino]-3-[2-hydroxy-4-(trifluoromethyl)phenyl]-4-methyl-1,2,4-triazin-5-one;2,2,2-trifluoroacetic Acid] showed an IC50 against NLRP3 [1] of over 1000 nM.

On NLRP3 [1], `CN1CC(Nc2nnc(-c3ccc(C(F)(F)F)cc3O)n(C)c2=O)C[C@H](F)C1` (stereo partly drawn) [Example 16, 6-[[(5S)-5-fluoro-1-methyl-3-piperidyl]amino]-3-[2-hydroxy-4-(trifluoromethyl)phenyl]-4-methyl-1,2,4-triazin-5-one;2,2,2-trifluoroacetic Acid] registered an IC50 of 860 nM.

With `Cn1c(-c2ccc(C(F)(F)F)cc2O)nnc(N[C@@H]2CCC(C)(C)NC2)c1=O` [Example 17, 6-[[(3R)-6,6-Dimethyl-3-piperidyl]amino]-3-[2-hydroxy-4-(trifluoromethyl)phenyl]-4-methyl-1,2,4-triazin-5-one;2,2,2-trifluoroacetic Acid], it took 683 nM to reach half-maximal inhibition on NLRP3 [1] (IC50).

Regarding `Cn1c(-c2ccc(C(F)(F)F)cc2O)nnc(NCc2cccc(O)c2)c1=O` [Example 18, 6-[(3-Hydroxyphenyl)methylamino]-3-[2-hydroxy-4-(trifluoromethyl)phenyl]-4-methyl-1,2,4-triazin-5-one;2,2,2-trifluoroacetic Acid], the results for the IC50 on NLRP3 [1] and against NLRP3 [2] were 1.2 nM and 8.1 nM, respectively.

On NLRP3 [1], `CCN1CCC[C@@H](Nc2nnc(-c3ccc(C(F)(F)F)cc3O)n(C3CC3)c2=O)C1` [Example 20, 4-Cyclopropyl-6-[[(3R)-1-ethyl-3-piperidyl]amino]-3-[2-hydroxy-4-(trifluoromethyl)phenyl]-1,2,4-triazin-5-one;2,2,2-trifluoroacetic Acid] had an IC50 of 726 nM.

In the case of `CCN1CCC[C@@H](Nc2nnc(-c3ccc(C(F)(F)F)cc3O)n(CC)c2=O)C1` [Example 22, 4-Ethyl-6-[[(3R)-1-ethyl-3-piperidyl]amino]-3-[2-hydroxy-4-(trifluoromethyl)phenyl]-1,2,4-triazin-5-one], the IC50 against NLRP3 [1] turned out to be 94 nM; against NLRP3 [2], 48 nM.

`CN1CCC[C@@H](Nc2nnc(-c3ccc(C(F)(F)F)cc3O)n(C)c2=O)C1` [Example 26, 3-[2-hydroxy-4-(trifluoromethyl)phenyl]-4-methyl-6-[[(3R)-1-methyl-3-piperidyl]amino]-1,2,4-triazin-5-one] came in with an IC50 on NLRP3 [1] of 10.3 nM.

Regarding `CCN1CCC[C@@H](Nc2nnc(-c3ccc(S(F)(F)(F)(F)F)cc3O)n(C)c2=O)C1` [Example 31, 6-[[(3R)-1-Ethyl-3-piperidyl]amino]-3-[2-hydroxy-4-(pentafluoro-λ6-sulfanyl)phenyl]-4-methyl-1,2,4-triazin-5-one], the IC50 against NLRP3 [1] amounted to 115 nM. Compared with the last molecule, the IC50 is about 11-fold higher.

`CCN1CCC[C@@H](Nc2nnc(-c3ccc(C#N)cc3O)n(C)c2=O)C1` [Example 32, 4-[6-[[(3R)-1-Ethyl-3-piperidyl]amino]-4-methyl-5-oxo-1,2,4-triazin-3-yl]-3-hydroxy-benzonitrile; formic acid] showed an IC50 against NLRP3 [1] of 809 nM.

Turning to `CCN1CCC[C@@H](Nc2nnc(-c3ccc(C(F)(F)F)cc3O)[nH]c2=O)C1` [Example 35, 6-[[(3R)-1-Ethyl-3-piperidyl]amino]-3-[2-hydroxy-4-(trifluoromethyl)phenyl]-4H-1,2,4-triazin-5-one;2,2,2-trifluoroacetic Acid], on NLRP3 [1], the IC50 turned out to be 459 nM.

At NLRP3 [1], `CN1C[C@@H](F)C[C@@H](Nc2nnc(-c3ccc(C(F)(F)F)cc3O)[nH]c2=O)C1` [Example 36, 6-[[(3R,5S)-1-Methyl-5-fluoro-3-piperidyl]amino]-3-[2-hydroxy-4-(trifluoromethyl)phenyl]-4H-1,2,4-triazin-5-one;2,2,2-trifluoroacetic Acid] came in with an IC50 of over 1000 nM.
